From US9957270B2, “Fused pyrimidine-based hydroxamate derivatives” (Agency for Science, Technology and Research, priority 2014, dated 2018) come the findings set out here.

As a reminder, the IC50 is the concentration at which inhibition is half-maximal.

Data set [1] in a line: Microsomal stability, mouse liver microsomes. Here is the method:
(§1) GIBIO pooled human liver microsomes (HLM) (Cat # HMMCPL), mouse liver microsomes (MLM) (Cat # BCMCPL), and rat liver microsomes (RLM) (Cat # RTMCPL) were purchased from Life Technologies. […] Samples are incubated for 30, 45, or 60 min. Reaction is terminated with ice-cold acetonitrile 0.3% formic acid. Samples are subsequently centrifuged at 4° C. for 15 min at 20,000×g. The supernatant is analysed by LC-MS.
(§2) Compound in vitro metabolic stability was assayed using liver microsomes (LM) at 0.5 mg/mL of proteins, incubated for 30 min (mouse, MLM), 45 min (rat, RLM), 30 or 45 min (human, HLM). % of remaining parent compound was measured using LC-MS.
On the technique in general: Microsomes from liver hold many membrane-bound enzymes, among them those of drug oxidation.

Data set [2] can be described thus: Microsomal stability, rat liver microsomes. As for the experimental part: as §1, §2
Data set [3] can be described thus: Microsomal stability, human liver microsomes. Here is the method: as §1, §2
A further data set has as its system MV-4-11. Briefly: cells. To be noted: Homo sapiens, MV4-11, 72 h, read-out: In Vitro Cellular IC50 MV-4-11.
Data set [4] addresses HDAC (HeLa nuclear extracts). Briefly: HDAC enzyme assay, HeLa nuclear extracts. To be noted: read-out: In Vitro Enzymatic IC50 HDAC (HeLa).
In another data set the target is HDAC1 (Homo sapiens, UniProt Q13547). As to the kind of experiment: HDAC enzyme assay, recombinant HDAC1.
The next data set has as its target T1, HDAC6 (Homo sapiens, UniProt Q9UBN7).
T1 sequence (Q9UBN7 1-1215): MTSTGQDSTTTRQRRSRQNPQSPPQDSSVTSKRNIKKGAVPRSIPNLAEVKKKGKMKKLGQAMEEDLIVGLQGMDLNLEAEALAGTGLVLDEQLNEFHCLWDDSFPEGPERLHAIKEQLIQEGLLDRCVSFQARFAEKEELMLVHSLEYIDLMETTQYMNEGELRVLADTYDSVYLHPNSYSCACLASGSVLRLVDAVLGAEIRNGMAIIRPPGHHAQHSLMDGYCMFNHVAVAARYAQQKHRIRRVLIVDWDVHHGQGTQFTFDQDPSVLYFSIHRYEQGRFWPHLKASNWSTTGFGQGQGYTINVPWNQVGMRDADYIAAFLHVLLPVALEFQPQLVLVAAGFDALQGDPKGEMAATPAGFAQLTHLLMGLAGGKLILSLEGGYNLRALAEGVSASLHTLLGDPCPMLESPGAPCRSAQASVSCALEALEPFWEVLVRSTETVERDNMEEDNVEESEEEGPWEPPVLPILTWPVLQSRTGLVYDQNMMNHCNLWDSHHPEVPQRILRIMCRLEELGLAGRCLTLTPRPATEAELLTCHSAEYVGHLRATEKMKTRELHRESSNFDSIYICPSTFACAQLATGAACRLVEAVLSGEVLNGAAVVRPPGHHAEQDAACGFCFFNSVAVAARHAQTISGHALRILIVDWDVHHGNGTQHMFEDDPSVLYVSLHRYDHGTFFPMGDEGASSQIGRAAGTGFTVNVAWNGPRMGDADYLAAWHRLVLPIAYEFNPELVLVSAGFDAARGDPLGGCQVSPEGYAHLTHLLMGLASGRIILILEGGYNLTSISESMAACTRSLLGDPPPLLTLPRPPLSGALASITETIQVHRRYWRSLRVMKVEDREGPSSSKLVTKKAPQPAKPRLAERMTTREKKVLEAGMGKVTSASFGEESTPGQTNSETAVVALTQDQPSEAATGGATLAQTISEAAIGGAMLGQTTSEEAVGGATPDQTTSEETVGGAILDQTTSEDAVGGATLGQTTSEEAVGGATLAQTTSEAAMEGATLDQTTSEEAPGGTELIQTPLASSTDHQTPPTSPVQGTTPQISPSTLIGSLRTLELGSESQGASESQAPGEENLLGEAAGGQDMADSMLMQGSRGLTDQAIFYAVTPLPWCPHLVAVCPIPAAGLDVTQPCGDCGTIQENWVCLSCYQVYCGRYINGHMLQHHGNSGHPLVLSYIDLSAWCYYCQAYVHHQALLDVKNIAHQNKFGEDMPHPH
Briefly: HDAC enzyme assay, recombinant HDAC6.

In another data set the target is T2, PI3Kα (Homo sapiens, UniProt P42336).
T2 construct: purchased Invitrogen, or BPS Bioscience Inc., or SignalChem PV4788 / 40620 / P27-18H
Briefly: Kinase enzyme assay (ADP-Glo), PI3Kα. The note with it: read-out: In Vitro Enzymatic IC50 PI3Kα. It is filed as biochemical.

The test system of another data set is MCF7. Briefly: Anti-proliferative assay (cellular IC50), MCF7. The note with it: Homo sapiens, MCF7, 72 h, read-out: In Vitro Cellular IC50 MCF7.
For the next data set, the system named is COLO 205. As to the kind of experiment: cells. To be noted: Homo sapiens, COLO 205, 72 h, read-out: In Vitro Cellular IC50 COLO 205.
A further data set relates to MOLT-4. Briefly: Anti-proliferative assay (cellular IC50), MOLT-4. To be noted: Homo sapiens, MOLT-4, 72 h, read-out: In Vitro Cellular IC50 MOLT-4.
The next data set has as its system PC-3. As to the kind of experiment: Anti-proliferative assay (cellular IC50), PC-3. To be noted: Homo sapiens, PC-3, 72 h, read-out: In Vitro Cellular IC50 PC-3.
The test system of another data set is K-562. As to the kind of experiment: Anti-proliferative assay (cellular IC50), K-562. To be noted: Homo sapiens, K562, 72 h, read-out: In Vitro Cellular IC50 K-562.
The subject of the next data set is HCT 116. Briefly: cells. To be noted: Homo sapiens, HCT-116, 72 h, read-out: In Vitro Cellular IC50 HCT 116.
The mark [5] stands for this setting: mouse, microsomes, 0.5 h, 5 μM, pH 7.4.
The mark [6] stands for this setting: rat, microsomes, 0.75 h, 5 μM, pH 7.4.
Setting [7] is: human, microsomes, 0.75 h, 5 μM, pH 7.4.

T2 sequence (P42336 whole entry): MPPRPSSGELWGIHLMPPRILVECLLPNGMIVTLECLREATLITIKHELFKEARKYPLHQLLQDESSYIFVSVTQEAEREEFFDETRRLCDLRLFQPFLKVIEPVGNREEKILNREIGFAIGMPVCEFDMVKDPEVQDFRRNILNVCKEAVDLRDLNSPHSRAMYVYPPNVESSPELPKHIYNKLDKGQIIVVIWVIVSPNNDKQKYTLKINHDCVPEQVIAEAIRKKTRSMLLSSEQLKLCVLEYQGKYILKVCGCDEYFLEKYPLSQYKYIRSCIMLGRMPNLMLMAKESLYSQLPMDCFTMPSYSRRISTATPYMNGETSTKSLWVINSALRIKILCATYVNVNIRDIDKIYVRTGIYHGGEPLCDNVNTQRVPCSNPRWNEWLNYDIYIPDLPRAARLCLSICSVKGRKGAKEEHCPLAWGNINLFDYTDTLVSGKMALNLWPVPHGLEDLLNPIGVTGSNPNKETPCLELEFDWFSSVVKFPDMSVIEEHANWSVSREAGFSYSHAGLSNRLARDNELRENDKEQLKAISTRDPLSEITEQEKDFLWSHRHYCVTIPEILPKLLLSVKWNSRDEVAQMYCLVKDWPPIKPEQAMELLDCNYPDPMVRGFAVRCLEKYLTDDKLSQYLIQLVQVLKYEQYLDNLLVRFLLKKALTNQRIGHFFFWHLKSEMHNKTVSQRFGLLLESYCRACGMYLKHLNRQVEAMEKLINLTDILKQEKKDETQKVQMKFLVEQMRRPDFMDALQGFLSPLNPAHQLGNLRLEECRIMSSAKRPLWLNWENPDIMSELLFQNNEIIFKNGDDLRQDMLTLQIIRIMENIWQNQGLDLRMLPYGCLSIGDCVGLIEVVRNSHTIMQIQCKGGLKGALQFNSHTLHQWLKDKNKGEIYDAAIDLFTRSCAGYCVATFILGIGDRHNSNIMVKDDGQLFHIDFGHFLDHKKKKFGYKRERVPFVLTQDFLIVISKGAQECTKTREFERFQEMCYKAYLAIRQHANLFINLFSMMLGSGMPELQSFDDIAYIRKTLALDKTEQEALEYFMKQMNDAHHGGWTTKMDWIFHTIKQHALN
T2 sequence (P27986 whole entry partner): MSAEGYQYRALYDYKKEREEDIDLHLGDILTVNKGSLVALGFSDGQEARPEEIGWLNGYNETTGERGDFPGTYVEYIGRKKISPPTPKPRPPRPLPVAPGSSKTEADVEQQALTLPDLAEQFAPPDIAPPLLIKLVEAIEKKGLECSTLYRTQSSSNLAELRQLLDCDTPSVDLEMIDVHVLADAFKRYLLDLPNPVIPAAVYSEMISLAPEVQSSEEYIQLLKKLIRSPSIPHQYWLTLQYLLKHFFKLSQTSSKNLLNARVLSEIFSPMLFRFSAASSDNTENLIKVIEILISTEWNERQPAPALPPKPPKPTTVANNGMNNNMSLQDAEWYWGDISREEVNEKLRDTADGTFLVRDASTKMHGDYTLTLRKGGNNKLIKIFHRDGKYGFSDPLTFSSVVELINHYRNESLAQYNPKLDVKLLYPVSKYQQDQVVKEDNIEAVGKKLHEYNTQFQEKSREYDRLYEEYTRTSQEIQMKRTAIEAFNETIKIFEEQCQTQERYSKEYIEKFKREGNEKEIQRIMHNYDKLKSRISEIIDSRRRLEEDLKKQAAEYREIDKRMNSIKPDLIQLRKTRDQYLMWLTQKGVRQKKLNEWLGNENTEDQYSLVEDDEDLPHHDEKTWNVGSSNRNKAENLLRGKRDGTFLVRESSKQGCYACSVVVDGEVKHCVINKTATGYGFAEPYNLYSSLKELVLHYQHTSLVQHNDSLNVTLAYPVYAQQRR
Sequence of HDAC1 (Q13547 whole entry): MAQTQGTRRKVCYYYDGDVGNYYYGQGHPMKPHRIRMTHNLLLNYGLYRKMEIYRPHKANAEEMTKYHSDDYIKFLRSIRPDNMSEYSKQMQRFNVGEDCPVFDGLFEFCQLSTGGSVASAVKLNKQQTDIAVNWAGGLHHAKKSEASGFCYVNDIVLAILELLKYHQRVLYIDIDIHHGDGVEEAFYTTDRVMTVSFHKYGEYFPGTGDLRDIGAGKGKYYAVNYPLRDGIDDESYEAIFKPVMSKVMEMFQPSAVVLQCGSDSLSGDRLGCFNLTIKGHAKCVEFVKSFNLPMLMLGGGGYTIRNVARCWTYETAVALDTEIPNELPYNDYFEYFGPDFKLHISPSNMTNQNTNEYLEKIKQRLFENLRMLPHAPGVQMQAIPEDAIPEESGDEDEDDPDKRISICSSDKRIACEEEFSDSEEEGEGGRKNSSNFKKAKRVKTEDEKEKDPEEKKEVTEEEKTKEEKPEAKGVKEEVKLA

`COc1ccc2c(c1)[C@]13CCCC[C@@H]1[C@H](C2)N(C)CC3` [Dextromethorphan, dextromethorphan, reference compound]: the “Microsomal Stability MLM, % of remaining parent compound” value in data set [1] (mouse liver microsomes 0.5 mg/mL, compound 5 μM, 30 min) worked out at 19%. Further, the “Microsomal Stability RLM, % of remaining parent compound” value in data set [2] (rat liver microsomes 0.5 mg/mL, compound 5 μM, 45 min) is listed as 5%. Also, the “Microsomal Stability HLM, % of remaining parent compound” value in data set [3] (human liver microsomes 0.5 mg/mL, compound 5 μM, 30 or 45 min) turned out to be 65%.
Take `CC(C)n1c(NCCCCCC(=O)NO)nc2c(-c3cnc(N)nc3)nc(N3CCOCC3)nc21` [compound 6]: in [1] (setting [5]), the “Microsomal Stability MLM, % of remaining parent compound” value stood at 89%. Also, the IC50 lay in the range of 500 to 2000 nM in the data set with MV-4-11; 100 to 1000 nM in [4]; 10 to 100 nM on HDAC1; 100 to 1000 nM on HDAC6; 10 to 100 nM at PI3Kα; 2000 to 10000 nM with MCF7. Moreover, the IC50 fell in the range of 2000 to 10000 nM in the data set with COLO 205; 2000 to 10000 nM in the data set with MOLT-4; 2000 to 10000 nM in the data set with PC-3; 2000 to 10000 nM with K-562; 500 to 2000 nM with HCT 116. Also, in data set [2] (setting [6]), the “Microsomal Stability RLM, % of remaining parent compound” value came to 88%. For the same compound, the “Microsomal Stability HLM, % of remaining parent compound” value in [3] (setting [7]) was 88%.
Regarding `CC(C)n1cnc2c(-c3cccc(OCCCCC(=O)NO)c3)nc(N3CCOCC3)nc21` [compound 10, N-hydroxy-5-(3-(9-isopropyl-2-morpholino-9H-purin-6-yl)phenoxy)pentanamide], the IC50 in the data set with MV-4-11 was less than 500 nM; in [4] it was 10 to 100 nM; at HDAC1 it was 100 to 1000 nM; at PI3Kα, 1000 to 10000 nM; in the data set with MCF7 it was 500 to 2000 nM; in the data set on COLO 205 it was 2000 to 10000 nM. For the same compound, the IC50 in the data set on PC-3 fell in the range of 2000 to 10000 nM; in the data set with K-562, 500 to 2000 nM. Further, the “Microsomal Stability RLM, % of remaining parent compound” value in data set [2] (setting [6]) is 74%. Further, the “Microsomal Stability HLM, % of remaining parent compound” value in data set [3] (setting [7]) is on record as 87%.
On to `CC(C)n1cnc2c(-c3cccc(OCCCC(=O)NO)c3)nc(N3CCCC3)nc21` [compound 29, N-hydroxy-4-(3-(9-isopropyl-2-(pyrrolidin-1-yl)-9H-purin-6-yl)phenoxy)butanamide], for which, in data set [1] (setting [5]), the “Microsomal Stability MLM, % of remaining parent compound” value was 75%. Also, the IC50 with MV-4-11 was less than 500 nM; in data set [4], 100 to 1000 nM; at HDAC1, 10 to 100 nM; in the data set on MCF7 it was 500 to 2000 nM; in the data set with COLO 205 it was 500 to 2000 nM; with MOLT-4, less than 500 nM. Moreover, the values for the IC50 in the data set with PC-3, in the data set with K-562 and in the data set on HCT 116 were 500 to 2000 nM, 500 to 2000 nM and less than 500 nM, respectively. For the same compound, the “Microsomal Stability RLM, % of remaining parent compound” value in [2] (setting [6]) is given as 9%. For the same compound, the “Microsomal Stability HLM, % of remaining parent compound” value in data set [3] (setting [7]) is reported as 97%.
On to `CC(C)n1cnc2c(-c3cccc(OCCCC(=O)NO)c3)nc(N(C)C)nc21` [compound 31, 4-(3-(2-(dimethylamino)-9-isopropyl-9H-purin-6-yl)phenoxy)-N-hydroxybutanamide], for which the “Microsomal Stability MLM, % of remaining parent compound” value in [1] (setting [5]) was determined as 53%. The IC50 in the data set with MV-4-11 is less than 500 nM; in data set [4], 10 to 100 nM; on HDAC1 it was 10 to 100 nM; in the data set with MCF7, 500 to 2000 nM; in the data set on COLO 205, 500 to 2000 nM; in the data set on MOLT-4, 500 to 2000 nM. Besides, the IC50 lay in the range of 2000 to 10000 nM with PC-3 and 500 to 2000 nM in the data set with K-562. In data set [2] (setting [6]), the “Microsomal Stability RLM, % of remaining parent compound” value is 25%. Also, in [3] (setting [7]), the “Microsomal Stability HLM, % of remaining parent compound” value is recorded as 90%.
As for `CCCn1cnc2c(-c3cccc(OCCCC(=O)NO)c3)nc(N3CCOCC3)nc21` [compound 43, N-hydroxy-4-(3-(2-morpholino-9-propyl-9H-purin-6-yl)phenoxy)butanamide], in data set [1] (setting [5]), the “Microsomal Stability MLM, % of remaining parent compound” value is listed as 96%. Further, the IC50 in the data set with MV-4-11 is less than 500 nM; in data set [4], 10 to 100 nM; on HDAC1, 100 to 1000 nM; with MCF7, 500 to 2000 nM; in the data set with COLO 205 it was 500 to 2000 nM; in the data set with MOLT-4, less than 500 nM. Also, the IC50 with PC-3 was 500 to 2000 nM; in the data set on K-562 it was less than 500 nM. For the same compound, the “Microsomal Stability RLM, % of remaining parent compound” value in data set [2] (setting [6]) worked out at 54%. For the same compound, in data set [3] (setting [7]), the “Microsomal Stability HLM, % of remaining parent compound” value was determined as 97%.
As to `CCn1cnc2c(-c3cccc(OCCCC(=O)NO)c3)nc(N3CCOCC3)nc21` [compound 45, 4-(3-(9-ethyl-2-morpholino-9H-purin-6-yl)phenoxy)-N-hydroxybutanamide], the “Microsomal Stability MLM, % of remaining parent compound” value in data set [1] (setting [5]) was determined as 78%. Besides, the IC50 is less than 500 nM in the data set with MV-4-11; 10 to 100 nM in data set [4]; 100 to 1000 nM on HDAC1; 500 to 2000 nM with MCF7; 500 to 2000 nM in the data set with COLO 205; less than 500 nM in the data set with MOLT-4. For the same compound, the IC50 with PC-3 and with K-562 was 500 to 2000 nM throughout. For the same compound, in data set [2] (setting [6]), the “Microsomal Stability RLM, % of remaining parent compound” value is recorded as 45%. Further, the “Microsomal Stability HLM, % of remaining parent compound” value in [3] (setting [7]) is on record as 105%.
On to `CCn1c(CN(C)Cc2ccc(/C=C/C(=O)NO)cc2)nc2c(N3CCOCC3)nc(-c3cnc(N)nc3)nc21` [compound 89, (E)-3-(4-((((2-(2-aminopyrimidin-5-yl)-9-ethyl-6-morpholino-9H-purin-8-yl)methyl)(methyl)amino)methyl)phenyl)-N-hydroxyacrylamide], for which, in data set [1] (setting [5]), the “Microsomal Stability MLM, % of remaining parent compound” value is given as 70%. For the same compound, the IC50 in data set [4] is 100 to 1000 nM; on HDAC1, 100 to 1000 nM; on PI3Kα, 10 to 100 nM; with MCF7 it was 500 to 2000 nM; in the data set on COLO 205, 2000 to 10000 nM; in the data set with MOLT-4, 500 to 2000 nM. Also, the IC50 in the data set with PC-3 and with K-562 was 2000 to 10000 nM throughout. Moreover, in data set [2] (setting [6]), the “Microsomal Stability RLM, % of remaining parent compound” value amounted to 70%. Also, the “Microsomal Stability HLM, % of remaining parent compound” value in data set [3] (setting [7]) was determined as 87%.
